Laboratory results from ChEMBL document CHEMBL4422618, “Translational impact of novel widely pharmacological characterized mofezolac-derived COX-1 inhibitors combined with bortezomib on human multiple myeloma cell lines viability” (Eur J Med Chem, 2019).
The source made the active and inactive calls. The rule behind the calls is not given here.

Legend:
[1] = Genotoxicity in Escherichia coli PQ37 at 500 uM after overnight incubation by SOS chromotest; format: toxicity
[2] = Mutagenicity in Salmonella typhimurium TA100 at 500 uM by Ames test; format: toxicity; details: salmonella enterica subsp. enterica serovar typhimurium
Plasma [3] = test: Anticoagulant activity in human platelet poor plasma assessed as activated partial thromboplastin time at 100 uM incubated for 15 mins at room temperature and subsequent incubation for 2 mins at 37 degreeC followed by cephalin addition and measured after 2 mins for every secs in presence of CaCl2; format: functional
RPMI-8226 [4] = test: Induction of apoptosis in human RPMI8226 cells assessed as necrotic cells at 1.7 uM after 48 hrs in presence of bortezomib by Annexin-V/propidium iodide staining based flow cytometric method (reference value: 0.090%); format: functional
RPMI-8226 [5] = test: Induction of apoptosis in human RPMI8226 cells assessed as viable cells at 1.7 uM after 48 hrs in presence of bortezomib by Annexin-V/propidium iodide staining based flow cytometric method (reference value: 98.7%); format: functional; details: RPMI-8226, 48 h, read-out: Activity
RPMI-8226 [6] = test: Cell cycle arrest in human RPMI8226 cells assessed as accumulation at G0/G1 phase at 1.7 uM in presence of bortezomib after 48 hrs by propidium iodide/RNase staining based flow cytometric method relative to bortezomib; format: functional
[7] = Mutagenicity in Salmonella typhimurium TA97 at 500 uM by Ames test; format: toxicity; details: salmonella enterica subsp. enterica serovar typhimurium
[8] = Genotoxicity in Escherichia coli PQ35 at 500 uM after overnight incubation by SOS chromotest; format: toxicity
[9] = Mutagenicity in Salmonella typhimurium TA102 at 500 uM by Ames test; format: toxicity; details: salmonella enterica subsp. enterica serovar typhimurium
RPMI-8226 [10] = test: Induction of apoptosis in human RPMI8226 cells assessed as late apoptotic cells at 1.7 uM after 48 hrs in presence of bortezomib by Annexin-V/propidium iodide staining based flow cytometric method (reference value: 0.21%); format: functional
NCI-H929 [11] = test: Induction of apoptosis in human NCI-H929 cells assessed as late apoptotic cells at 1.7 uM after 48 hrs by Annexin-V/propidium iodide staining based flow cytometric method (reference value: 0.23%); format: functional
NCI-H929 [12] = test: Induction of apoptosis in human NCI-H929 cells assessed as early apoptotic cells at 1.7 uM after 48 hrs in presence of bortezomib by Annexin-V/propidium iodide staining based flow cytometric method (reference value: 17.1%); format: functional
NCI-H929 [13] = test: Induction of apoptosis in human NCI-H929 cells assessed as necrotic cells at 1.7 uM after 48 hrs in presence of bortezomib by Annexin-V/propidium iodide staining based flow cytometric method (reference value: 0.0034%); format: functional
NCI-H929 [14] = test: Induction of apoptosis in human NCI-H929 cells assessed as viable cells at 1.7 uM after 48 hrs in presence of bortezomib by Annexin-V/propidium iodide staining based flow cytometric method (reference value: 82.6%); format: functional; details: NCI-H929, 48 h, read-out: Activity
RPMI-8226 [15] = test: Cytotoxicity against human RPMI8226 cells assessed as reduction in cell viability at […] after 48 hrs by CCK8 assay relative to control; format: functional
NCI-H929 [16] = test: Induction of apoptosis in human NCI-H929 cells assessed as late apoptotic cells at 1.7 uM after 48 hrs in presence of bortezomib by Annexin-V/propidium iodide staining based flow cytometric method (reference value: 0.23%); format: functional
NCI-H929 [17] = test: Induction of apoptosis in human NCI-H929 cells assessed as necrotic cells at 1.7 uM after 48 hrs by Annexin-V/propidium iodide staining based flow cytometric method (reference value: 0.0034%); format: functional
NCI-H929 [18] = test: Induction of apoptosis in human NCI-H929 cells assessed as early apoptotic cells at 1.7 uM after 48 hrs by Annexin-V/propidium iodide staining based flow cytometric method (reference value: 17.1%); format: functional
RPMI-8226 [19] = test: Induction of apoptosis in human RPMI8226 cells assessed as early apoptotic cells at 1.7 uM after 48 hrs in presence of bortezomib by Annexin-V/propidium iodide staining based flow cytometric method (reference value: 1.05%); format: functional
RPMI-8226 [20] = test: Cell cycle arrest in human RPMI8226 cells assessed as accumulation at S phase at 1.7 uM in presence of bortezomib after 48 hrs by propidium iodide/RNase staining based flow cytometric method relative to bortezomib; format: functional
RPMI-8226 [21] = test: Cell cycle arrest in human RPMI8226 cells assessed as accumulation at G0/G1 phase at 1.7 uM after 48 hrs by propidium iodide/RNase staining based flow cytometric method; format: functional
[22] = Hemolytic activity in erythrocytes (unknown origin) at 100 uM after 3 hrs by spectrophotometric analysis; format: ADME, cell-based, Erythrocyte; details: read-out: Activity
NCI-H929 [23] = test: Induction of apoptosis in human NCI-H929 cells assessed as viable cells at 1.7 uM after 48 hrs by Annexin-V/propidium iodide staining based flow cytometric method (reference value: 82.6%); format: functional; details: NCI-H929, 48 h, read-out: Activity
RPMI-8226 [24] = test: Cell cycle arrest in human RPMI8226 cells assessed as reduction in accumulation at G2/M phase at 1.7 uM in presence of bortezomib after 48 hrs by propidium iodide/RNase staining based flow cytometric method relative to bortezomib; format: functional
Plasma [25] = test: Anticoagulant activity in human platelet poor plasma assessed as prothrombin time at 100 uM incubated for 15 mins at room temperature and subsequent incubation for 2 mins at 37 degreeC followed by PBS addition and measured after 3 mins for every secs in presence of calcium thromboplastin; format: functional
NCI-H929 [26] = test: Potentiation of bortezomib-induced cytotoxicity against human NCI-H929 cells assessed as reduction in cell viability at […] after 48 hrs in presence of bortezomib by CCK8 assay; format: functional, cell-based
NCI-H929 [27] = test: Potentiation of bortezomib-induced cytotoxicity against human NCI-H929 cells assessed as reduction in cell viability at 42 nM after 48 hrs in presence of bortezomib by CCK8 assay; format: functional, cell-based
[28] = Mutagenicity in Salmonella typhimurium TA98 at 500 uM by Ames test; format: toxicity; details: salmonella enterica subsp. enterica serovar typhimurium
RPMI-8226 [29] = test: Potentiation of bortezomib-induced cytotoxicity against human RPMI8226 cells assessed as reduction in cell viability at 1.7 uM after 48 hrs in presence of bortezomib by CCK8 assay; format: functional
Platelet = test: Antiplatelet activity in human platelet rich plasma assessed as inhibition of arachidonic acid-induced platelet aggregation preincubated for 2 mins followed by arachidonic acid addition by turbidimetric method; format: functional, cell-based
RPMI-8226 [30] = test: Cell cycle arrest in human RPMI8226 cells assessed as accumulation at S phase at 1.7 uM after 48 hrs by propidium iodide/RNase staining based flow cytometric method; format: functional

In the case of CC(=O)Oc1ccccc1C(=O)O [ASPIRIN], the Activity [1] is reported as “Non-Toxic”, the Activity [2] is reported as “Non-Toxic” and the APTT (Plasma [3]) is reported as 50.3 s. For the same compound, the Activity (RPMI-8226 [4]) was 0.014%, the viability at 1.7 µM (RPMI-8226 [5]) was 91.6% and the Activity (RPMI-8226 [6]) was “Active”. The Activity [7] was “Non-Toxic”, the Activity [8] was “Non-Toxic” and the Activity [9] was “Non-Toxic”. The Activity (RPMI-8226 [10]) was 0.48%, the Activity (NCI-H929 [11]) was 0.072% and the Activity (NCI-H929 [12]) was 54.6%. The Activity (NCI-H929 [13]) was 0.026%, the viability at 1.7 µM (NCI-H929 [14]) was 45.2% and the Activity (RPMI-8226 [15]) was 7%. For the same compound, the Activity (NCI-H929 [16]) was 0.12%, the Activity (NCI-H929 [17]) was 0.016% and the Activity (NCI-H929 [18]) was 16%. The Activity (RPMI-8226 [19]) was 7.95%, the Activity (RPMI-8226 [20]) was “Active” and the Activity (RPMI-8226 [21]) was “inactive”. For the same compound, the hemolysis at 3 h, 100 µM [22] was 0%, the viability at 1.7 µM (NCI-H929 [23]) was 83.9% and the Activity (RPMI-8226 [24]) was “Active”. The PT (Plasma [25]) was 14.6 s, the Activity (NCI-H929 [26]) was “inactive” and the Activity (NCI-H929 [27]) was “inactive”. The Activity [28] was “Non-Toxic”, the Activity (RPMI-8226 [29]) was 66% and the IC50 (Platelet) was 1110 nM. The Activity (RPMI-8226 [30]) was “inactive”.
